From patent publication US6737383B1, “Herbicidal oxadiazolidines” (priority 1999, dated 2004)

What was measured:
[1] = tested on: bedstraw; assay: Test B pre/postemergence bedstraw; format: in vivo, Galium aparine
Method in brief: (§1)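 Response is a visual 0-to-10 score relative to untreated plants, where 0 means no effect and 10 means complete control, taken twelve to sixteen days after application. Treatments went onto soil at planting and onto foliage of 1- to 4-leaf plants, using a surfactant-containing non-phytotoxic solvent.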

[2] = tested on: blackgrass; assay: Test B pre/postemergence blackgrass; format: in vivo, Alopecurus myosuroides
Method in brief: as §1

[3] = tested on: surinam grass; assay: Test B pre/postemergence surinam grass; format: in vivo, Brachiaria decumbens
Method in brief: as §1

[4] = tested on: cocklebur; assay: Test B pre/postemergence cocklebur; format: in vivo, Xanthium strumarium; conditions: for Cocklebur plant response rating: scale of 0 to 10 where 0 is no effect and 10 is complete control
Method in brief: as §1

[5] = tested on: corn; assay: Test B pre/postemergence corn; format: in vivo, Zea mays; conditions: for Corn plant response rating: scale of 0 to 10 where 0 is no effect and 10 is complete control
Method in brief: as §1

[6] = tested on: crabgrass; assay: Test B pre/postemergence crabgrass; format: in vivo, Digitaria sanguinalis; conditions: for Crabgrass plant response rating: scale of 0 to 10 where 0 is no effect and 10 is complete control
Method in brief: as §1

[7] = tested on: pigweed; assay: Test B pre/postemergence pigweed; format: in vivo, Amaranthus retroflexus; conditions: for Redroot pigweed plant response rating: scale of 0 to 10 where 0 is no effect and 10 is complete control
Method in brief: as §1

[8] = tested on: rape; assay: Test B pre/postemergence rape; format: in vivo, Brassica napus; conditions: for Rape plant response rating: scale of 0 to 10 where 0 is no effect and 10 is complete control
Method in brief: as §1

[9] = tested on: soybean; assay: Test B pre/postemergence soybean; format: in vivo, Glycine max; conditions: for Soybean plant response rating: scale of 0 to 10 where 0 is no effect and 10 is complete control
Method in brief: as §1

[10] = tested on: sugar beet; assay: Test B pre/postemergence sugar beet; format: in vivo, Beta vulgaris; conditions: for Sugarbeets plant response rating: scale of 0 to 10 where 0 is no effect and 10 is complete control
Method in brief: as §1

[11] = tested on: velvetleaf; assay: Test B pre/postemergence velvetleaf; format: in vivo, Abutilon theophrasti; conditions: for Velvetleaf plant response rating: scale of 0 to 10 where 0 is no effect and 10 is complete control
Method in brief: as §1

[12] = tested on: wheat; assay: Test B pre/postemergence wheat; format: in vivo, Triticum aestivum; conditions: for Wheat plant response rating: scale of 0 to 10 where 0 is no effect and 10 is complete control
Method in brief: as §1

[13] = tested on: wild oat; assay: Test B pre/postemergence wild oat; format: in vivo, Avena fatua; conditions: for Wild oats plant response rating: scale of 0 to 10 where 0 is no effect and 10 is complete control
Method in brief: as §1

[14] = tested on: purple nutsedge; assay: Test B pre/postemergence purple nutsedge; format: in vivo, Cyperus rotundus; conditions: for Nutsedge plant response rating: scale of 0 to 10 where 0 is no effect and 10 is complete control
Method in brief: as §1

[15] = tested on: smallflower flatsedge; assay: Test B flood test smallflower flatsedge; format: in vivo, Cyperus difformis
Method in brief: (§2)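 Read-out is a visual response score from 0 (no effect) to 10 (complete control), assigned by comparison with untreated controls. Treatment was applied at the 2-leaf stage, and plants stayed in the greenhouse for twelve to sixteen days before scoring.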

[16] = tested on: bamyardgrass; assay: Test B flood test barnyardgrass; format: in vivo, Echinochloa crus-galli
Method in brief: as §2

[17] = Postemergence, Rate 125 g/ha, scale 0 to 10, 0 is no effect, 10 is complete control
[18] = Preemergence, Rate 62 g/ha, scale of 0 to 10 where 0 is no effect and 10 is complete control
[19] = Preemergence, Rate 250 g/ha, scale of 0 to 10 where 0 is no effect and 10 is complete control
[20] = Preemergence, Rate 500 g/ha, scale of 0 to 10 where 0 is no effect and 10 is complete control
[21] = Rate 62 g/ha, Postemergence, scale of 0 to 10 where 0 is no effect and 10 is complete control
[22] = Rate 250 g/ha, Postemergence, scale of 0 to 10 where 0 is no effect and 10 is complete control
[23] = Rate 500 g/ha, Postemergence, scale 0 to 10, 0 no effect, 10 complete control
[24] = Rate 62 g/ha, headed Pre-emergence (flood test species), scale 0 to 10 (0 no effect, 10 complete control)
[25] = Rate 125 g/ha, Pre-emergence, flood test species, scale 0 to 10 where 0 is no effect and 10 is complete control
[26] = Rate 250 g/ha, Pre-emergence, flood-test species, scale 0 to 10, 0 is no effect, 10 is complete control
[27] = Rate 500 g/ha, Pre-emergence, flood test species, scale 0 to 10 (0 no effect, 10 complete control)

Question: What does the source list for `CC(C)N(C(=O)n1oc(=O)n(C2CCCCCC2)c1=O)c1ccc(Cl)cc1` [Compound 339]?
Answer: Plant response rating, Bedstraw [1, 17]: 2; Bedstraw plant response rating [1, 18]: 0; Bedstraw plant response rating (0 to 10 scale) ([1]; Preemergence, Rate 125 g/ha): 0; Bedstraw plant response rating [1, 19]: 0; Bedstraw plant response rating [1, 20]: 0; Bedstraw plant response rating [1, 21]: 0; Plant response rating, Bedstraw [1, 22]: 7; Plant response rating, Bedstraw [1, 23]: 8; Plant response rating, Blackgrass [2, 17]: 0; Blackgrass plant response rating [2, 18]: 0; Blackgrass plant response rating (0 to 10 scale) ([2]; Preemergence, Rate 125 g/ha): 0; Blackgrass plant response rating [2, 19]: 2; Blackgrass plant response rating [2, 20]: 3; Blackgrass plant response rating [2, 21]: 0; Plant response rating, Blackgrass [2, 22]: 0; Plant response rating, Blackgrass [2, 23]: 2; Plant response rating, B. signalgrass [3, 17]: 0; B. signalgrass plant response rating [3, 18]: 0; B. signalgrass plant response rating (0 to 10 scale, 0 is no effect, 10 is complete control) ([3]; Preemergence, Rate 125 g/ha): 0; B. signalgrass plant response rating [3, 19]: 0; B. signalgrass plant response rating [3, 20]: 0; B. signalgrass plant response rating [3, 21]: 0; Plant response rating, B. signalgrass [3, 22]: 0; Plant response rating, B. signalgrass [3, 23]: 0; Plant response rating, Cocklebur [4, 17]: 0; Cocklebur plant response rating ([4]; Preemergence, Rate 62 g/ha): 0; Cocklebur plant response rating (0 to 10 scale) ([4]; Preemergence, Rate 125 g/ha): 0; Cocklebur plant response rating ([4]; Preemergence, Rate 250 g/ha): 0; Cocklebur plant response rating ([4]; Preemergence, Rate 500 g/ha): 0; Cocklebur plant response rating ([4]; Rate 62 g/ha, Postemergence): 0; Plant response rating, Cocklebur [4, 23]: 0; Plant response rating, Corn [5, 17]: 0; Corn plant response rating ([5]; Preemergence, Rate 62 g/ha): 0; Corn plant response rating (0 to 10 scale) ([5]; Preemergence, Rate 125 g/ha): 0; Corn plant response rating ([5]; Preemergence, Rate 250 g/ha): 0; Corn plant response rating ([5]; Preemergence, Rate 500 g/ha): 0; Corn plant response rating ([5]; Rate 62 g/ha, Postemergence): 0; Plant response rating, Corn [5, 23]: 0; Plant response rating, Crabgrass [6, 17]: 0; Crabgrass plant response rating ([6]; Preemergence, Rate 62 g/ha): 0; Crabgrass plant response rating (0 to 10 scale) ([6]; Preemergence, Rate 125 g/ha): 0; Crabgrass plant response rating ([6]; Preemergence, Rate 250 g/ha): 2; Crabgrass plant response rating ([6]; Preemergence, Rate 500 g/ha): 5; Crabgrass plant response rating ([6]; Rate 62 g/ha, Postemergence): 0; Plant response rating, Crabgrass [6, 23]: 2; Plant response rating, Redroot pigweed [7, 17]: 2; Redroot pigweed plant response rating ([7]; Preemergence, Rate 62 g/ha): 0; Redroot pigweed plant response rating (0 to 10 scale) ([7]; Preemergence, Rate 125 g/ha): 0; Redroot pigweed plant response rating ([7]; Preemergence, Rate 250 g/ha): 0; Redroot pigweed plant response rating ([7]; Preemergence, Rate 500 g/ha): 0; Redroot pigweed plant response rating ([7]; Rate 62 g/ha, Postemergence): 0; Plant response rating, Redroot pigweed [7, 23]: 6; Plant response rating, Rape [8, 17]: 1; Rape plant response rating ([8]; Preemergence, Rate 62 g/ha): 0; Rape plant response rating (0 to 10 scale) ([8]; Preemergence, Rate 125 g/ha): 0; Rape plant response rating ([8]; Preemergence, Rate 250 g/ha): 0; Rape plant response rating ([8]; Preemergence, Rate 500 g/ha): 0; Rape plant response rating ([8]; Rate 62 g/ha, Postemergence): 0; Plant response rating, Rape [8, 23]: 5; Plant response rating, Soybean [9, 17]: 1; Soybean plant response rating ([9]; Preemergence, Rate 62 g/ha): 0; Soybean plant response rating (0 to 10 scale) ([9]; Preemergence, Rate 125 g/ha): 0; Soybean plant response rating ([9]; Preemergence, Rate 250 g/ha): 0; Soybean plant response rating ([9]; Preemergence, Rate 500 g/ha): 0; Soybean plant response rating ([9]; Rate 62 g/ha, Postemergence): 1; Plant response rating, Soybean [9, 23]: 4; Plant response rating, Sugarbeets [10, 17]: 0; Sugarbeets plant response rating ([10]; Preemergence, Rate 62 g/ha): 0; Sugarbeets plant response rating (0 to 10 scale) ([10]; Preemergence, Rate 125 g/ha): 0; Sugarbeets plant response rating ([10]; Preemergence, Rate 250 g/ha): 0; Sugarbeets plant response rating ([10]; Preemergence, Rate 500 g/ha): 0; Sugarbeets plant response rating ([10]; Rate 62 g/ha, Postemergence): 0; Plant response rating, Sugarbeets [10, 23]: 0; Plant response rating, Velvetleaf [11, 17]: 0; Velvetleaf plant response rating ([11]; Preemergence, Rate 62 g/ha): 0; Velvetleaf plant response rating (0 to 10 scale) ([11]; Preemergence, Rate 125 g/ha): 0; Velvetleaf plant response rating ([11]; Preemergence, Rate 250 g/ha): 0; Velvetleaf plant response rating ([11]; Preemergence, Rate 500 g/ha): 0; Velvetleaf plant response rating ([11]; Rate 62 g/ha, Postemergence): 0; Plant response rating, Velvetleaf [11, 23]: 0; Plant response rating, Wheat [12, 17]: 0; Wheat plant response rating ([12]; Preemergence, Rate 62 g/ha): 0; Wheat plant response rating (0 to 10 scale) ([12]; Preemergence, Rate 125 g/ha): 0; Wheat plant response rating ([12]; Preemergence, Rate 250 g/ha): 0; Wheat plant response rating ([12]; Preemergence, Rate 500 g/ha): 0; Wheat plant response rating ([12]; Rate 62 g/ha, Postemergence): 0; Plant response rating, Wheat [12, 23]: 0; Plant response rating, Wild oats [13, 17]: 0; Wild oats plant response rating ([13]; Preemergence, Rate 62 g/ha): 0; Wild oats plant response rating (0 to 10 scale) ([13]; Preemergence, Rate 125 g/ha): 0; Wild oats plant response rating ([13]; Preemergence, Rate 250 g/ha): 0; Wild oats plant response rating ([13]; Preemergence, Rate 500 g/ha): 0; Wild oats plant response rating ([13]; Rate 62 g/ha, Postemergence): 0; Plant response rating, Wild oats [13, 23]: 0; Plant response rating, Nutsedge [14, 17]: 0; Nutsedge plant response rating ([14]; Preemergence, Rate 62 g/ha): 0; Nutsedge plant response rating (0 to 10 scale) ([14]; Preemergence, Rate 125 g/ha): 0; Nutsedge plant response rating ([14]; Preemergence, Rate 250 g/ha): 0; Nutsedge plant response rating ([14]; Preemergence, Rate 500 g/ha): 0; Nutsedge plant response rating ([14]; Rate 62 g/ha, Postemergence): 0; Plant response rating, Nutsedge [14, 23]: 0; S. Flatsedge plant response rating [15, 24]: 0; S. Flatsedge plant response rating [15, 25]: 0; S. Flatsedge plant response rating [15, 26]: 0; S. Flatsedge plant response rating [15, 27]: 1; Barnyardgrass plant response rating [16, 24]: 2; Barnyardgrass plant response rating [16, 25]: 8; Barnyardgrass plant response rating [16, 26]: 9; Barnyardgrass plant response rating [16, 27]: 9
